The values below are quoted from earlier work in patent US6756056B2, “Treatment of Parkinson's disease and related disorders by novel formulations of the combination carbidopa-levodopa” (priority 1997, dated 2004).

The conditions of the series: doses of 400 mg per day.

Each structure is given as a SMILES string.

Turning to `C[C@@](Cc1ccc(O)c(O)c1)(NN)C(=O)O` [carbidopa], the Adverse effects result is reported as “apparently devoid of adverse effects”.
